Results published in the supplement of paper PMC10307832.

What was measured:
Assay in all cases: relative viability (nuclei count vs DMSO), 5 days (fraction); higher = more cells survive
Motesanib + Crizotinib = compound: CC1(C)CNc2cc(NC(=O)c3cccnc3NCc3ccncc3)ccc21 [Motesanib] + C[C@@H](Oc1cc(-c2cnn(C3CCNCC3)c2)cnc1N)c1c(Cl)ccc(F)c1Cl [Crizotinib] (partner 1 µM)
Summary of the method: (§1)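 Lung cancer cell lines in 1536-well plates got either a single drug or a fixed anchor-drug dose together with five library-drug doses (not always all listed) in √10 steps, by pin tool, on the day after seeding. Nuclei were counted after 5 days, and relative viability is the treated-to-vehicle ratio of nuclei counts. Values are medians of duplicate plates.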

[1] = compound: C[C@@]1(C(=O)Nc2ccc(F)nc2)CCCN1c1nc(Nc2cc(C3CC3)n[nH]2)c2cccn2n1 + Cc1nc(Nc2ncc(C(=O)Nc3c(C)cccc3Cl)s2)cc(N2CCN(CCO)CC2)n1 [Dasatinib] (partner 0.075 µM)
Summary of the method: as §1

[2] = compound: C[C@@]1(C(=O)Nc2ccc(F)nc2)CCCN1c1nc(Nc2cc(C3CC3)n[nH]2)c2cccn2n1 + CCNC(=O)c1noc(-c2cc(C(C)C)c(O)cc2O)c1-c1ccc(CN2CCOCC2)cc1 [Luminespib] (partner 0.01 µM)
Summary of the method: as §1

[3] = compound: C[C@@]1(C(=O)Nc2ccc(F)nc2)CCCN1c1nc(Nc2cc(C3CC3)n[nH]2)c2cccn2n1 + CC1(C)CCC(c2ccc(Cl)cc2)=C(CN2CCN(c3ccc(C(=O)NS(=O)(=O)c4ccc(N[C@H](CCN5CCOCC5)CSc5ccccc5)c(S(=O)(=O)C(F)(F)F)c4)cc3)CC2)C1 [Navitoclax] (partner 0.5 µM)
Summary of the method: as §1

Row | Cell Line | relative viability (Motesanib + Crizotinib; first compound 0.01 µM) | relative viability (Motesanib + Crizotinib; first compound 0.03162 µM) | relative viability (Motesanib + Crizotinib; first compound 0.1 µM) | relative viability (Motesanib + Crizotinib; first compound 0.3162 µM) | relative viability (Motesanib + Crizotinib; first compound 1 µM) | relative viability ([1]; first compound 0.04 µM) | relative viability ([1]; first compound 0.1265 µM) | relative viability ([1]; first compound 0.4 µM) | relative viability ([1]; first compound 1.265 µM) | relative viability ([2]; first compound 0.04 µM) | relative viability ([2]; first compound 0.1265 µM) | relative viability ([2]; first compound 0.4 µM) | relative viability ([2]; first compound 1.265 µM) | relative viability ([3]; first compound 0.04 µM) | relative viability ([3]; first compound 0.1265 µM) | relative viability ([3]; first compound 0.4 µM) | relative viability ([3]; first compound 1.265 µM)
1 | NCI-H460 | 0.935 | 0.75 | 0.945 | 0.927 | 0.902 | 0.258 | 0.101 | 0.0641 | 0.0353 | 0.0318 | 0.0246 | 0.0368 | 0.0359 | 1.08 | 0.893 | 1.01 | 1.23
2 | NCI-H520 | 0.665 | 0.792 | 0.697 | 0.662 | 0.725 | 0.207 | 0.176 | 0.176 | 0.229 | 0.214 | 0.242 | 0.267 | 0.211 | 1.16 | 0.988 | 1.04 | 1.11
3 | NCI-H596 | 0.937 | 0.884 | 0.958 | 1.12 | 1.05 | 0.552 | 0.439 | 0.415 | 0.372 | 0.819 | 0.885 | 0.88 | 1.17 | 1.01 | 0.809 | 0.921 | 1.09
4 | NCI-H647 | 1 | 1.06 | 1.2 | 1.19 | 0.964 | 0.361 | 0.0884 | 0.105 | 0.214 | 0.152 | 0.245 | 0.181 | 0.164 | 1.1 | 0.989 | 0.894 | 1.14
5 | NCI-H727 | 0.96 | 0.839 | 0.786 | 0.808 | 0.723 | 0.278 | 0.182 | 0.273 | 0.229 | 0.34 | 0.319 | 0.249 | 0.249 | 0.175 | 0.185 | 0.106 | 0.14
6 | NCI-H838 | 0.908 | 0.856 | 0.903 | 0.899 | 0.878 | 0.299 | 0.198 | 0.187 | 0.213 | 0.296 | 0.291 | 0.183 | 0.338 | 1.21 | 1.01 | 0.948 | 1.1
7 | NCI-H1355 | 1.12 | 1.14 | 0.994 | 1.07 | 1.05 | 0.545 | 0.488 | 0.434 | 0.421 | 0.669 | 0.517 | 0.577 | 0.696 | 0.776 | 0.924 | 0.787 | 0.86
8 | NCI-H1437 | 0.888 | 0.996 | 0.963 | 0.95 | 1.05 | 0.218 | 0.236 | 0.223 | 0.125 | 1.18 | 1.19 | 1.01 | 1.02 | 1.04 | 0.828 | 0.739 | 0.919
9 | NCI-H1650 | 0.91 |  | 0.975 | 0.93 | 1.02 | 0.313 | 0.266 | 0.249 | 0.144 | 0.215 | 0.194 | 0.199 | 0.181 | 0.955 | 1.14 | 0.955 | 1.08
10 | NCI-H1651 | 0.836 | 0.835 | 0.786 | 0.912 | 0.838 | 0.309 | 0.33 | 0.185 | 0.231 | 0.916 | 0.715 | 0.768 | 0.71 | 0.963 | 1.12 | 0.861 | 1.16
11 | NCI-H1666 | 1.02 | 1.06 | 0.949 | 0.958 | 1.03 | 0.709 | 0.613 | 0.486 | 0.412 | 0.915 | 0.932 | 0.825 | 0.812 | 0.823 | 0.777 | 0.578 | 0.581
12 | NCI-H1734 | 0.685 | 0.645 | 0.654 | 0.68 | 0.673 | 0.345 | 0.296 | 0.29 | 0.185 | 0.201 | 0.161 | 0.159 | 0.157 | 0.834 | 0.593 | 0.661 | 0.731
13 | NCI-H1755 | 0.862 | 0.867 | 0.893 | 0.91 | 0.882 | 0.29 | 0.262 | 0.241 | 0.171 | 0.616 | 0.357 | 0.406 | 0.437 | 1 | 0.864 | 0.913 | 0.971
14 | NCI-H1792 | 0.931 | 0.92 | 1.01 | 1.05 | 0.968 | 0.283 | 1.06 | 0.211 | 0.227 | 0.344 | 0.653 | 0.243 | 0.292 | 0.422 | 0.36 | 0.464 | 0.393
15 | NCI-H1915 | 0.897 | 0.851 | 0.875 | 0.927 | 0.947 | 0.302 | 0.3 | 0.288 | 0.268 | 0.816 | 0.736 | 0.781 | 0.862 | 0.774 | 0.767 | 0.836 | 0.779
16 | NCI-H1944 | 1.08 | 1.06 | 1.17 | 1.02 | 1.17 | 0.173 | 0.154 | 0.145 | 0.166 | 0.562 | 0.652 | 0.399 | 0.586 | 0.991 | 0.947 | 0.981 | 1.08
17 | NCI-H1975 | 1.05 | 0.848 | 0.93 | 0.889 | 0.983 | 0.263 | 0.306 | 0.181 | 0.154 | 0.272 | 0.117 | 0.128 | 0.187 | 0.988 | 1.06 | 0.773 | 0.765
